Measurements taken from publication PMC9661480, “Discovery and Optimization of Indoline-Based Compounds as Dual 5-LOX/sEH Inhibitors: In Vitro and In Vivo Anti-Inflammatory Characterization” (Journal of Medicinal Chemistry, 2022).

Assays:
[1] = molecular target: T1, human recombinant sEH (Homo sapiens, UniProt P34913); assay: sEH activity assay (PHOME substrate); format: biochemical; details: Table 2; human isolated sEH; mean ± SEM
T1 construct: made in house; host or cells: Sf9 insect cells (recombinant baculovirus)
T1 sequence (P34913 1-555): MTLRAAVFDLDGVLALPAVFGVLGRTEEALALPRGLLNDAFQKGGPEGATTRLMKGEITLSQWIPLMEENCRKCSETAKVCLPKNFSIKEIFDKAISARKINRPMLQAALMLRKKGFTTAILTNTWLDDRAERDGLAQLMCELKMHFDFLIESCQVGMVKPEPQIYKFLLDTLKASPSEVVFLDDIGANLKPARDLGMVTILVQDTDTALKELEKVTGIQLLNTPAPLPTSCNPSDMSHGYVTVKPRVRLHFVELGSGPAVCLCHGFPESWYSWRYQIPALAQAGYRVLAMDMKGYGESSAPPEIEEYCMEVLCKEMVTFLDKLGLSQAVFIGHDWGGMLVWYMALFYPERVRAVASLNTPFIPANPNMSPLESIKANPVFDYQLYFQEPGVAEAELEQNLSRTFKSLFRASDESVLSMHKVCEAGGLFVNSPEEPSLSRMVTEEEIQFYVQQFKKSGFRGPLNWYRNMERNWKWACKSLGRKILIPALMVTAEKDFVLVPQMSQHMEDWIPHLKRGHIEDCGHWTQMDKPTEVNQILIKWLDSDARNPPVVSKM

[2] = molecular target: T2, 5-LOX (Homo sapiens, UniProt P09917); assay: Cell-free 5-LOX activity assay; format: biochemical; set-up: made in house; host or cells: Escherichia coli Bl21 (DE3); details: Table 2; human isolated 5-LOX; mean ± SEM
T2 sequence (P09917 1-674): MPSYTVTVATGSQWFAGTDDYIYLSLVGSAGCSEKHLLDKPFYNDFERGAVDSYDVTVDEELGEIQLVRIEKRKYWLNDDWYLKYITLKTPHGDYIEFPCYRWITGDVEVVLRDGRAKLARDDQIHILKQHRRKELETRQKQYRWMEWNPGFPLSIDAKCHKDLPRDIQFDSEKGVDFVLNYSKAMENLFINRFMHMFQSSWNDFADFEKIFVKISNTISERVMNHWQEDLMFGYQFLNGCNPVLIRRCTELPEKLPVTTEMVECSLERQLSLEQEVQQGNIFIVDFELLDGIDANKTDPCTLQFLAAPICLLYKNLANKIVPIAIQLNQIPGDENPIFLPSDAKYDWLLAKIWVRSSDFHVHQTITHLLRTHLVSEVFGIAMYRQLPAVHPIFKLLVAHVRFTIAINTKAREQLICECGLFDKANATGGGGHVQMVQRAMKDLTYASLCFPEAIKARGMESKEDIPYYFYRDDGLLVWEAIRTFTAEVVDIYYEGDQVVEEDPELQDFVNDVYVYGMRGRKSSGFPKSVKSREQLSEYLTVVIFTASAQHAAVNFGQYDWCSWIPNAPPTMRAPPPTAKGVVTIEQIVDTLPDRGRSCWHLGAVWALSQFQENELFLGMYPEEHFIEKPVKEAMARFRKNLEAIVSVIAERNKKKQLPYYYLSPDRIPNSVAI

[3] = In vivo plasma levels of 73; details: mouse, ip, mean ±SD

IC50 [2]	concentration at 0.5 h ([3]; 0.5 h after 10 mg Kg-1 intraperitoneal)	concentration at 1 h ([3]; 1 h after 10 mg Kg-1 intraperitoneal)	concentration at 2 h ([3]; 2 h after 10 mg Kg-1 intraperitoneal)	concentration at 4 h ([3]; 4 h after 10 mg Kg-1 intraperitoneal)	Compound	IC50 [1]
> 10 µM	–	–	–	–	1-(1-(4-Aminobutyl)indolin-5-yl)-3-neopentylthiourea [compound 51]	> 10 µM
–	–	–	–	–	4-(3-(1-(4-Fluorobenzyl)indolin-5-yl)thioureido)benzoic Acid [compound 58]	> 10 µM
–	15.4 ± 2.5 ng/mL	12.3 ± 0.9 ng/mL	10.6 ± 0.6 ng/mL	1.1 ± 0.1 ng/mL	CC(C)(C)CNC(=S)Nc1ccc2c(c1)CCN2Cc1ccc(N=O)cc1 [compound 73, 1-Neopentyl-3-(1-(4-nitrosobenzyl)indolin-5-yl)thiourea]	–
